Results on 18 molecules are retold here after EP4806898A1, “HETEROARYL DERIVATIVE COMPOUND AND USE THEREOF” (Voronoi Inc., priority 2023, dated 2025).

One assay has as its target T1, recombinant USP1 protein (Homo sapiens, UniProt O94782, DEL125-138/DEL229-408/DEL608-737).
T1 sequence (O94782 with tags, fused parts or gaps DEL125-138/DEL229-408/DEL608-737): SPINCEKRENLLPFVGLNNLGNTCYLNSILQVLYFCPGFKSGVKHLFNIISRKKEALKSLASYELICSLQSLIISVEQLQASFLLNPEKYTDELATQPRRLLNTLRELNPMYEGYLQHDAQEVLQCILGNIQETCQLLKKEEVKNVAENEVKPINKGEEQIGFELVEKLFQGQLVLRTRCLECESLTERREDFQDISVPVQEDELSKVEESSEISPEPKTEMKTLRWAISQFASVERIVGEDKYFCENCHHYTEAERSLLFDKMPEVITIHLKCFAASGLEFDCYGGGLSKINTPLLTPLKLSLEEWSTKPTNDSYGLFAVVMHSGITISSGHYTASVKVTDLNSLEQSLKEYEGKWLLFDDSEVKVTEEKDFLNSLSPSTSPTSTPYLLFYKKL
The experiment in a line: Binding affinity to recombinant USP1 protein by differential scanning fluorimetry. Particulars: compound 100 µM; 0.03 mg/mL USP1 (Δ1-66, Δ125-138, Δ229-408, Δ608-737); Tm with compound minus Tm with DMSO; read-out: ΔTm (°C). The essentials:
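Thermal shift readout: ΔTm is the compound-well melting temperature less the DMSO-well value, measured by real-time PCR. Compounds tested at 100 µM final against 0.03 mg/mL truncated USP1 (Δ1-66, Δ125-138, Δ229-408, Δ608-737) in pH 8.0 Tris buffer containing 150 mM NaCl, 2% glycerol, 1 mM DTT.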

A further assay concerns UWB1.289 cells. The experiment in a line: Cell proliferation inhibitory activity in BRCA1/2-mutant or HRD-positive cells (Cell Titer-Glo). It is filed as cell-based. Particulars: UWB1289; UWB1.289 cells, 144 hours after compound treatment, Cell Titer-Glo, 1.5 nM to 10 µM; read-out: GI50 UWB1.289 BRCA1 mut. The essentials:
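GI50 from CellTiter-Glo luminescence after 144 h compound exposure at 37 °C. Cells seeded at 1,000 per well in MEBM/RPMI1640 mix 16–24 h beforehand; […] from 10 µM down to 1.5 nM final (3-fold steps).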
A general note: In ATP-based viability assays light output follows the ATP content of the culture.

By ΔTm is commonly meant the shift of the melting midpoint relative to a reference. The GI50 is the concentration giving 50% growth inhibition. Take `COc1ncnc(C2CC2)c1-c1ncc2cc(C(=O)N3CC(O)C3)n(Cc3ccc(-c4nc(C(F)(F)F)cn4C)cc3)c2n1` [Example 196, (2-(4-cyclopropyl-6-methoxypyrimid in-5-yl)-7-(4-(1-methyl-4-(trifluoromethyl)-1H-imidazol-2-yl)benzyl)-7H-pyrrolo[2,3-d]pyrimidin-6-yl) (3-hydroxyazetidi n-1-yl)methanone]: the ΔTm at 100 µM on recombinant USP1 protein was more than 5 °C. Also, the concentration for 50% growth inhibition (GI50) in the assay with UWB1.289 cells was less than 100 nM.
Turning to `COc1ncnc(C2CC2)c1-c1ncc2cc(C(=O)NC(C)(C)CO)n(Cc3ccc(-c4nc(C(F)(F)F)cn4C)cc3)c2n1` [Example 197, 2-(4-cyclopropyl-6-methoxypyrimidin-5-yl)-N-(1-hydroxy-2-methylpropan-2-yl)-7-(4-(1-methyl-4-(trifluoromethyl)-1H-imidazol-2-yl)benzyl)-7H-pyrrolo[2,3-d]pyrimidine-6-carboxamide], the ΔTm at 100 µM at recombinant USP1 protein was more than 5 °C. The concentration for 50% growth inhibition (GI50) in the assay with UWB1.289 cells was less than 100 nM.
In the same order, the values of `CNC(=O)c1cc2cnc(-c3c(OC)ncnc3C3CC3)nc2n1Cc1ccc(-n2nc(C(F)(F)F)cc2-c2ccco2)cc1` [Example 198, 2-(4-cyclopropyl-6-methoxypyrimidin-5-yl)-7-(4-(5-(furan-2-yl)-3-(trifluoromethyl)-1H-pyrazol-1-yl)benzyl)-N-methyl-7H-pyrrolo[2,3-d]pyrimidine-6-carboxamide] are more than 5 °C and 100 to 500 nM.
Take `COc1ncnc(C2CC2)c1-c1ncc2cc(C(=O)N[C@@H]3CCN(C)[C@H](C)C3)n(Cc3ccc(-c4nc(C(F)(F)F)cn4C)cc3)c2n1` [Example 199, 2-(4-cyclopropyl-6-methoxypyrimidin-5-yl)-N-((2R,4R)-1,2-dimethylpiperidin-4-yl)-7-(4-(1-methyl-4-(trifluoromethyl)-1H-imidazol-2-yl)benzyl)-7H-pyrrolo[2,3-d]pyrimidine-6-carboxamide]: the ΔTm at 100 µM on recombinant USP1 protein was more than 5 °C. The GI50 in the assay on UWB1.289 cells was less than 100 nM.
In the same order, the values of `CNC(=O)c1cc2cnc(-c3c(OC)ncnc3C3CC3)nc2n1Cc1ccc(-c2nc(C(F)(F)F)c3n2CCCC3)cc1` [Example 200, 2-(4-cyclopropyl-6-methoxypyrimidin-5-yl)-N-methyl-7-(4-(1-(trifluoromethyl) -5,6,7,8-tetrahydroimidazo[1,5-a]pyridin-3-yl)benzyl)-7H-pyrrolo[2,3-d]pyrimidine-6-carboxamide] are more than 5 °C and less than 100 nM.
In the same order, the values of `COc1ncnc(C2CC2)c1-c1ncc2cc(C(=O)N[C@H]3CCN(C)[C@H](C)C3)n(Cc3ccc(-c4nc(C(F)(F)F)cn4C)cc3)c2n1` [Example 201, 2-(4-cyclopropyl-6-methoxypyrimidin-5-yl)-N-((2R,4S)-1,2-dimethylpiperidin-4-yl)-7-(4-(1-methyl-4-(trifluoromethyl)-1H-imidazol-2-yl)benzyl)-7H-pyrrolo[2,3-d]pyrimidine-6-carboxamide] are more than 5 °C and less than 100 nM.
In the same order, the values of `COc1ncnc(C2CC2)c1-c1ncc2cc(C(=O)N[C@H]3CCN(C)CC3(F)F)n(Cc3ccc(-c4nc(C(F)(F)F)cn4C)cc3)c2n1` [Example 202, (S)-2-(4-cyclopropyl-6-methoxypyrimidin-5-yl)-N-(3,3-difluoro-1-methylpiperidin-4-yl)-7-(4-(1-methyl-4-(trifluoromethyl)-1H-imidazol-2-yl)benzyl)-7H-pyrrolo[2,3-d]pyrimidine-6-carboxamide] are more than 5 °C and less than 100 nM.
As to `CNC1CN(C(=O)c2cc3cnc(-c4c(OC)ncnc4C4CC4)nc3n2Cc2ccc(-c3nc(C(F)(F)F)cn3C)cc2)C1` [Example 203, (2-(4-cyclopropyl-6-methoxypyrimid in-5-yl)-7-(4-(1-methyl-4-(trifluoromethyl)-1H-imidazol-2-yl)benzyl)-7H-pyrrolo[2,3-d]pyrimidin-6-yl) (3-(methylamino)azetidin-1-yl)methanone], on recombinant USP1 protein, the ΔTm at 100 µM was more than 5 °C. For the same molecule, the 50% growth inhibitory concentration (GI50) with UWB1.289 cells was less than 100 nM.
As to `COc1ncnc(C2CC2)c1-c1ncc2cc(C(=O)N(C)C)n(Cc3ccc(-c4nc(C(F)(F)F)cn4C)cc3)c2n1` [Example 204, 2-(4-cyclopropyl-6-methoxypyrimidin-5-yl)-N,N-dimethyl-7-(4-(1-methyl-4-(trifluoromethyl)-1H-imidazol-2-yl)benzyl)-7H-pyrrolo[2,3-d]pyrimidine-6-carboxamide], on recombinant USP1 protein, the ΔTm at 100 µM is more than 5 °C. Besides, in the assay on UWB1.289 cells, the concentration for 50% growth inhibition (GI50) was less than 100 nM.
In the same order, the values of `COc1ncnc(C2CC2)c1-c1ncc2cc(C(=O)NCC(C)(C)O)n(Cc3ccc(-c4nc(C(F)(F)F)cn4C)cc3)c2n1` [Example 205, 2-(4-cyclopropyl-6-methoxypyrimidin-5-yl)-N-(2-hydroxy-2-methylpropyl)-7-(4-(1-methyl-4-(trifluoromethyl)-1H-imidazol-2-yl)benzyl)-7H-pyrrolo[2,3-d]pyrimidine-6-carboxamide] are more than 5 °C and less than 100 nM.
Turning to `COc1ncnc(C2CC2)c1-c1ncc2cc(C(=O)N[C@@H]3CCN(C)CC3(F)F)n(Cc3ccc(-c4nc(C(F)(F)F)cn4C)cc3)c2n1` [Example 207, (R) -2-(4-cyclopropyl-6-methoxypyrimidin-5-yl)-N-(3,3-difluoro-1-methylpiperidin-4-yl)-7-(4-(1-methyl-4-(trifluoromethyl)-1H-imidazol-2-yl)benzyl)-7H-pyrrolo[2,3-d]pyrimidine-6-carboxamide], the ΔTm at 100 µM at recombinant USP1 protein was more than 5 °C. Besides, the GI50 in the assay on UWB1.289 cells is less than 100 nM.
`CNC(=O)c1cc2cnc(-c3c(OC)ncnc3C3CC3)nc2n1Cc1ccc(-c2nc(C(F)(F)F)c3ccccn23)cc1` [Example 208, 2-(4-cyclopropyl-6-methoxypyrimidin-5-yl)-N-methyl-7-(4-(1-(trifluoromethyl)imidazol[1,5-a]pyridin-3-yl)benzyl)-7H-pyrrolo[2,3-d]pyrimidine-6-carboxamide]: the ΔTm at 100 µM on recombinant USP1 protein was more than 5 °C. Further, the GI50 with UWB1.289 cells is less than 100 nM.
In the same order, the values of `CNC(=O)c1cc2cnc(-c3c(OC)ncnc3C3CC3)nc2n1Cc1ccc(-c2cc(C)ccn2)cc1` [Example 209, 2-(4-cyclopropyl-6-methoxypyrimidin-5-yl)-N-methyl-7-(4-(4-methylpyridin-2-yl)benzyl)-7H-pyrrolo[2,3-d]pyrimidine-6-carboxamide] are more than 5 °C and less than 100 nM.
In the same order, the values of `COc1ncnc(C2CC2)c1-c1ncc2cc(C(=O)N(C)CSC)n(Cc3ccc(-c4nc(C(F)(F)F)cn4C)cc3)c2n1` [Example 210, 2-(4-cyclopropyl-6-methoxypyrimidin-5-yl)-N-methyl-7-(4-(1-methyl-4-(trifluoromethyl)-1H-imidazol-2-yl)benzyl)-N-((methylthio)methyl)-7H-pyrrolo[2,3-d]pyrimidine-6-carboxamide] are more than 5 °C and less than 100 nM.
In the same order, the values of `COc1ncnc(C2CC2)c1-c1ncc2cc(C(=O)N[C@H]3CN(C(C)C)C[C@H]3F)n(Cc3ccc(-c4nc(C(F)(F)F)cn4C)cc3)c2n1` [Example 211, 2-(4-cyclopropyl-6-methoxypyrimidin-5-yl)-N-((3S,4R)-4-fluoro-1-isopropylpyrrolidin-3-yl)-7-(4-(1-methyl-4-(trifluoromethyl)-1H-imidazol-2-yl)benzyl)-7H-pyrrolo[2,3-d]pyrimidine-6-carboxamide] are more than 5 °C and less than 100 nM.
For `COc1ncnc(C2CC2)c1-c1ncc2cc(C(=O)N[C@H]3CN(C4COC4)C[C@H]3F)n(Cc3ccc(-c4nc(C(F)(F)F)cn4C)cc3)c2n1` [Example 212, 2-(4-cyclopropyl-6-methoxypyrimidin-5-yl)-N-((3S,4R)-4-fluoro-1-(oxetan-3-yl)pyrrolidin-3-yl)-7-(4-(1-methyl-4-(trifluoromethyl)-1H-imidazol-2-yl)benzyl)-7H-pyrrolo [2,3-d]pyrimidine-6-carboxamide], the ΔTm at 100 µM on recombinant USP1 protein was more than 5 °C. Also, in the assay on UWB1.289 cells, the GI50 is less than 100 nM.
In the same order, the values of `CNC(=O)c1cc2cnc(-c3c(OC)ncnc3C3CC3)nc2n1Cc1ccc(-c2nc(C(F)(F)F)c(OC)n2C)cc1` [Example 214, 2-(4-cyclopropyl-6-methoxypyrimidin-5-yl)-7-(4-(5-methoxy-1-methyl-4-(trifluoromethyl)-1H-imidazol-2-yl)benzyl)-N-methyl-7H-pyrrolo[2,3-d]pyrimidine-6-carboxamide] are more than 5 °C and less than 100 nM.
Turning to `COc1ncnc(C2CC2)c1-c1ncc2cc(C(=O)N[C@H]3CN(C4CC4)C[C@H]3F)n(Cc3ccc(-c4nc(C(F)(F)F)cn4C)cc3)c2n1` [Example 215, N-((3S,4R)-1-cyclopropyl-4-fluoropyrrolidin-3-yl)-2-(4-cyclopropyl-6-methoxypyrimidin-5-yl)-7-(4-(1-methyl-4-(trifluoromethyl)-1H-imidazol-2-yl)benzyl)-7H-pyrrolo[2,3-d]pyrimidine-6-carboxamide], the ΔTm at 100 µM at recombinant USP1 protein is more than 5 °C. Also, the GI50 in the assay on UWB1.289 cells was less than 100 nM.
